According to ChEMBL document CHEMBL3885861, “Open TG-GATES”:

Species: Rattus norvegicus
Assay: Open TG-GATES - Regimen: Daily Repeat
Format: toxicity, organism-based, Sprague-Dawley
Parameters: regimen Daily Repeat, gender Male, age 6 weeks
Settings: in vivo, po, route gavage; for APTT / Bas / Eos / Fbg / Hb / Ht / Lym / MCH / MCHC / MCV / Mono / Neu / PT / Plat / RBC / Ret / WBC: tissue Blood; for KIDNEY_L / KIDNEY_R / KIDNEY_TOTAL: tissue Kidney; for LIVER: tissue Liver; for A/G / ALP / ALT / AST / BUN / CRE / Ca / Cl / DBIL / GLC / IP / K / LDH / Na / PL / RALB / TBIL / TC / TG / TP / gamma-GTP: tissue Plasma
[1] = 80 mg/kg, 72 h, dose level Middle, time 3 day
[2] = 80 mg/kg, […], dose level Middle, time 7 day
[3] = 80 mg/kg, […], dose level Middle, time 14 day
[4] = 80 mg/kg, […], dose level Middle, time 28 day
[5] = 250 mg/kg, 72 h, dose level High, time 3 day
[6] = 250 mg/kg, […], dose level High, time 7 day
[7] = 250 mg/kg, […], dose level High, time 14 day
[8] = 250 mg/kg, […], dose level High, time 28 day

CCSCC[C@H](N)C(=O)O [ETHIONINE]
TERMINAL_BW [1]: 221.5 g
APTT [1]: 24.9 s
Bas [1]: 0%
Eos [1]: 1%
Fbg [1]: 201 mg/dL
Hb [1]: 14 g/dL
Ht [1]: 41.5%
Lym [1]: 85.4%
MCH [1]: 20.9 pg
MCHC [1]: 33.7%
MCV [1]: 62.1 fL
Mono [1]: 2.8%
Neu [1]: 9.6%
PT [1]: 15.3 s
Plat [1]: 123 x10_4/uL
RBC [1]: 669.2 x10_4/ul
Ret [1]: 4.8%
WBC [1]: 93.2 x10_2/uL
KIDNEY_L [1]: 1 g
KIDNEY_R [1]: 1 g
KIDNEY_TOTAL [1]: 2 g
LIVER [1]: 9.7 g
A/G [1]: 1.8
ALP [1]: 983 IU/L
ALT [1]: 37.8 IU/L
AST [1]: 65.6 IU/L
BUN [1]: 17.2 mg/dL
CRE [1]: 0.4 mg/dL
Ca [1]: 10.5 mg/dL
Cl [1]: 102 meq/L
DBIL [1]: 0.088 mg/dL
GLC [1]: 197.8 mg/dL
IP [1]: 8.2 mg/dL
K [1]: 3.8 meq/L
LDH [1]: 211 IU/L
Na [1]: 141.6 meq/L
PL [1]: 118.2 mg/dL
RALB [1]: 3.6 g/dL
TBIL [1]: 0.2 mg/dL
TC [1]: 47.2 mg/dL
TG [1]: 94.8 mg/dL
TP [1]: 5.7 g/dL
gamma-GTP [1]: 1.2 IU/L
TERMINAL_BW [2]: 252.3 g
TERMINAL_BW [3]: 307.2 g
TERMINAL_BW [4]: 355.5 g
APTT [2]: 25.7 s
Bas [2]: 0%
Eos [2]: 0.8%
Fbg [2]: 216.4 mg/dL
Hb [2]: 14.2 g/dL
Ht [2]: 41.8%
Lym [2]: 81.8%
MCH [2]: 20.8 pg
MCHC [2]: 33.9%
MCV [2]: 61.4 fL
Mono [2]: 2%
Neu [2]: 14.4%
PT [2]: 15 s
Plat [2]: 120.9 x10_4/uL
RBC [2]: 681.2 x10_4/ul
Ret [2]: 3.1%
WBC [2]: 117.7 x10_2/uL
APTT [3]: 24 s
Bas [3]: 0%
Eos [3]: 1%
Fbg [3]: 214.6 mg/dL
Hb [3]: 14.4 g/dL
Ht [3]: 42%
Lym [3]: 73%
MCH [3]: 20.3 pg
MCHC [3]: 34.1%
MCV [3]: 59.4 fL
Mono [3]: 3%
Neu [3]: 23%
PT [3]: 14.2 s
Plat [3]: 121.6 x10_4/uL
RBC [3]: 708.4 x10_4/ul
Ret [3]: 4.1%
WBC [3]: 143.7 x10_2/uL
APTT [4]: 23.9 s
Bas [4]: 0%
Eos [4]: 0.6%
Fbg [4]: 197 mg/dL
Hb [4]: 15 g/dL
Ht [4]: 43.1%
Lym [4]: 78.6%
MCH [4]: 19.7 pg
MCHC [4]: 34.9%
MCV [4]: 56.3 fL
Mono [4]: 2.4%
Neu [4]: 17.6%
PT [4]: 14.6 s
Plat [4]: 114.3 x10_4/uL
RBC [4]: 765.2 x10_4/ul
Ret [4]: 1.8%
WBC [4]: 115.9 x10_2/uL
KIDNEY_L [2]: 1.1 g
KIDNEY_R [2]: 1.1 g
KIDNEY_TOTAL [2]: 2.2 g
KIDNEY_L [3]: 1.2 g
KIDNEY_R [3]: 1.2 g
KIDNEY_TOTAL [3]: 2.3 g
KIDNEY_L [4]: 1.3 g
KIDNEY_R [4]: 1.3 g
KIDNEY_TOTAL [4]: 2.7 g
LIVER [2]: 10.5 g
LIVER [3]: 13.2 g
LIVER [4]: 14.1 g
A/G [2]: 1.8
ALP [2]: 1213.6 IU/L
ALT [2]: 37.4 IU/L
AST [2]: 68.6 IU/L
BUN [2]: 17.6 mg/dL
CRE [2]: 0.4 mg/dL
Ca [2]: 10.4 mg/dL
Cl [2]: 103.6 meq/L
DBIL [2]: 0.1 mg/dL
GLC [2]: 186.6 mg/dL
IP [2]: 7.3 mg/dL
K [2]: 3.8 meq/L
LDH [2]: 193.2 IU/L
Na [2]: 141.6 meq/L
PL [2]: 126.6 mg/dL
RALB [2]: 3.6 g/dL
TBIL [2]: 0.2 mg/dL
TC [2]: 46.4 mg/dL
TG [2]: 122.6 mg/dL
TP [2]: 5.5 g/dL
gamma-GTP [2]: 0.8 IU/L
A/G [3]: 1.8
ALP [3]: 894 IU/L
ALT [3]: 33 IU/L
AST [3]: 58 IU/L
BUN [3]: 16.6 mg/dL
CRE [3]: 0.4 mg/dL
Ca [3]: 10.4 mg/dL
Cl [3]: 102.4 meq/L
DBIL [3]: 0.098 mg/dL
GLC [3]: 201.8 mg/dL
IP [3]: 7.3 mg/dL
K [3]: 3.4 meq/L
LDH [3]: 187.8 IU/L
Na [3]: 141.4 meq/L
PL [3]: 141.8 mg/dL
RALB [3]: 3.8 g/dL
TBIL [3]: 0.2 mg/dL
TC [3]: 55.4 mg/dL
TG [3]: 128 mg/dL
TP [3]: 5.9 g/dL
gamma-GTP [3]: 0.8 IU/L
A/G [4]: 1.7
ALP [4]: 747.8 IU/L
ALT [4]: 30.2 IU/L
AST [4]: 55.8 IU/L
BUN [4]: 19.4 mg/dL
CRE [4]: 0.5 mg/dL
Ca [4]: 10.2 mg/dL
Cl [4]: 105.8 meq/L
DBIL [4]: 0.1 mg/dL
GLC [4]: 187.4 mg/dL
IP [4]: 6.7 mg/dL
K [4]: 3.7 meq/L
LDH [4]: 220.4 IU/L
Na [4]: 142.6 meq/L
PL [4]: 138.6 mg/dL
RALB [4]: 3.8 g/dL
TBIL [4]: 0.2 mg/dL
TC [4]: 57.4 mg/dL
TG [4]: 124 mg/dL
TP [4]: 6 g/dL
gamma-GTP [4]: 1 IU/L
TERMINAL_BW [5]: 209.1 g
APTT [5]: 27.3 s
Bas [5]: 0%
Eos [5]: 1%
Fbg [5]: 204.2 mg/dL
Hb [5]: 15.1 g/dL
Ht [5]: 43.9%
Lym [5]: 87%
MCH [5]: 21.5 pg
MCHC [5]: 34.3%
MCV [5]: 62.9 fL
Mono [5]: 2.4%
Neu [5]: 8.8%
PT [5]: 16.2 s
Plat [5]: 114.9 x10_4/uL
RBC [5]: 698.8 x10_4/ul
Ret [5]: 4%
WBC [5]: 108.9 x10_2/uL
KIDNEY_L [5]: 0.9 g
KIDNEY_R [5]: 0.9 g
KIDNEY_TOTAL [5]: 1.9 g
LIVER [5]: 8.7 g
A/G [5]: 1.9
ALP [5]: 1059.2 IU/L
ALT [5]: 42 IU/L
AST [5]: 73.2 IU/L
BUN [5]: 15.8 mg/dL
CRE [5]: 0.4 mg/dL
Ca [5]: 10.4 mg/dL
Cl [5]: 102 meq/L
DBIL [5]: 0.09 mg/dL
GLC [5]: 183.8 mg/dL
IP [5]: 8.3 mg/dL
K [5]: 3.8 meq/L
LDH [5]: 236.4 IU/L
Na [5]: 140 meq/L
PL [5]: 94 mg/dL
RALB [5]: 3.5 g/dL
TBIL [5]: 0.2 mg/dL
TC [5]: 36.6 mg/dL
TG [5]: 40.4 mg/dL
TP [5]: 5.5 g/dL
gamma-GTP [5]: 0.8 IU/L
TERMINAL_BW [6]: 226 g
TERMINAL_BW [7]: 268.3 g
TERMINAL_BW [8]: 314.2 g
APTT [6]: 28 s
Bas [6]: 0%
Eos [6]: 0.4%
Fbg [6]: 210.4 mg/dL
Hb [6]: 15.1 g/dL
Ht [6]: 44.3%
Lym [6]: 83.4%
MCH [6]: 20.9 pg
MCHC [6]: 34%
MCV [6]: 61.6 fL
Mono [6]: 2.2%
Neu [6]: 13.6%
PT [6]: 15.5 s
Plat [6]: 87.8 x10_4/uL
RBC [6]: 720.4 x10_4/ul
Ret [6]: 1%
WBC [6]: 122.2 x10_2/uL
APTT [7]: 26 s
Bas [7]: 0%
Eos [7]: 0.6%
Fbg [7]: 205.4 mg/dL
Hb [7]: 14.3 g/dL
Ht [7]: 42.2%
Lym [7]: 75.8%
MCH [7]: 19.9 pg
MCHC [7]: 34%
MCV [7]: 58.5 fL
Mono [7]: 2.6%
Neu [7]: 20.2%
PT [7]: 15.4 s
Plat [7]: 100.5 x10_4/uL
RBC [7]: 722.2 x10_4/ul
Ret [7]: 3.8%
WBC [7]: 133.6 x10_2/uL
APTT [8]: 27.8 s
Bas [8]: 0%
Eos [8]: 0.6%
Fbg [8]: 200.6 mg/dL
Hb [8]: 15.9 g/dL
Ht [8]: 45.4%
Lym [8]: 77%
MCH [8]: 19.4 pg
MCHC [8]: 35%
MCV [8]: 55.4 fL
Mono [8]: 2.2%
Neu [8]: 19.6%
PT [8]: 16.1 s
Plat [8]: 95.1 x10_4/uL
RBC [8]: 820.2 x10_4/ul
Ret [8]: 1.6%
WBC [8]: 91.7 x10_2/uL
KIDNEY_L [6]: 1 g
KIDNEY_R [6]: 1 g
KIDNEY_TOTAL [6]: 2 g
KIDNEY_L [7]: 1.1 g
KIDNEY_R [7]: 1.1 g
KIDNEY_TOTAL [7]: 2.3 g
KIDNEY_L [8]: 1.1 g
KIDNEY_R [8]: 1.1 g
KIDNEY_TOTAL [8]: 2.3 g
LIVER [6]: 9.3 g
LIVER [7]: 10.5 g
LIVER [8]: 11.6 g
A/G [6]: 2
ALP [6]: 1237 IU/L
ALT [6]: 44 IU/L
AST [6]: 62.8 IU/L
BUN [6]: 16.6 mg/dL
CRE [6]: 0.4 mg/dL
Ca [6]: 10.4 mg/dL
Cl [6]: 105.2 meq/L
DBIL [6]: 0.1 mg/dL
GLC [6]: 178.4 mg/dL
IP [6]: 5.9 mg/dL
K [6]: 3.7 meq/L
LDH [6]: 214.2 IU/L
Na [6]: 141.8 meq/L
PL [6]: 118.2 mg/dL
RALB [6]: 3.5 g/dL
TBIL [6]: 0.2 mg/dL
TC [6]: 45.8 mg/dL
TG [6]: 76.4 mg/dL
TP [6]: 5.3 g/dL
gamma-GTP [6]: 1 IU/L
A/G [7]: 1.9
ALP [7]: 959.2 IU/L
ALT [7]: 33.2 IU/L
AST [7]: 58 IU/L
BUN [7]: 18.8 mg/dL
CRE [7]: 0.4 mg/dL
Ca [7]: 10.2 mg/dL
Cl [7]: 103 meq/L
DBIL [7]: 0.1 mg/dL
GLC [7]: 189.8 mg/dL
IP [7]: 6.9 mg/dL
K [7]: 3.6 meq/L
LDH [7]: 196 IU/L
Na [7]: 142 meq/L
PL [7]: 135.8 mg/dL
RALB [7]: 3.5 g/dL
TBIL [7]: 0.2 mg/dL
TC [7]: 57.4 mg/dL
TG [7]: 80.2 mg/dL
TP [7]: 5.4 g/dL
gamma-GTP [7]: 0.8 IU/L
A/G [8]: 1.9
ALP [8]: 934.8 IU/L
ALT [8]: 34 IU/L
AST [8]: 62.4 IU/L
BUN [8]: 19.2 mg/dL
CRE [8]: 0.5 mg/dL
Ca [8]: 10 mg/dL
Cl [8]: 105.2 meq/L
DBIL [8]: 0.1 mg/dL
GLC [8]: 177 mg/dL
IP [8]: 5.6 mg/dL
K [8]: 3.5 meq/L
LDH [8]: 271.6 IU/L
Na [8]: 143 meq/L
PL [8]: 126.4 mg/dL
RALB [8]: 3.8 g/dL
TBIL [8]: 0.2 mg/dL
TC [8]: 49.2 mg/dL
TG [8]: 101.4 mg/dL
TP [8]: 5.8 g/dL
gamma-GTP [8]: 1 IU/L
